According to patent US5688936A, “Vesicle membrane transport proteins” (priority 1993, dated 1997):
“Also recorded” adds a separate entry of the source. Where two headings read alike, the source gives them in different places.

What was measured:
wild-type CHO cells = assay: MTT cytotoxicity assay in wild-type CHO cells; type: cell-based, Chinese hamster; settings: CHO cells (FIG. 6b)
Experimental: (§1) Differential susceptibility to the respiratory complex I inhibitors MPP^+ and rotenone was shown by measuring toxicity by measuring general cell dehydrogenase activity with reduction of a tetrazolium dye (MTT) in a spectrophotometric plate assay as described by Hansen et al., J. Immunol. Methods 119:203-210 (1989). Briefly, a stock solution of MTT (3,(4,5-dimethylthiazol-2-yl)2,5-diphenyltetrazolium bromide) was dissolved at a concentration of 5 mg/ml in sterile phosphate buffered saline at room temperature. To each well was added 25 μl of the stock solution. After two hours of incubation at 37° C., 100 μl of extraction buffer (20% w/v of SDS in a solution of 50% each dimethylformamide and demineralized water with the pH adjusted to 4.7 with acetic acid and HCl). After an overnight incubation at 37° C., the optical densities at 570 nm were measured using a multiscanner, employing the extraction buffer as the blank. This assay was carried out in triplicate on 96-well plates (NUNC, Denmark). MPP^+ and rotenone at the concentrations indicated in FIG. 6a and 6b, respectively, was added to wild-type and MPP^+ -resistant CHO cells at approximately 50% confluence, and toxicity was assayed after 2-3 days by measuring general cell dehydrogenase activity with the reduction of the tetrazolium dye MTT (3,(4,5-dimethylthiazol-2-yl)2,5-diphenyl-tetrazolium bromide). After addition of the dye at a final concentration of 1 mg/ml, the cells were incubated for two hours at 37° C. and the formazan product was solubilized in 10% sodium dodecyl sulfate (SDS). The plates were maintained at 37° C. for an additional twenty hours and the optical density was determined in an ELISA plate reader at a test wavelength of 570 nm, a reference wavelength of 630 nm and a calibration setting of 1.99. All determinations were performed in triplicate and expressed as the mean, with the error bars representing standard deviation (FIG. 6a and 6b).

[1] = test system: MPP^+ -resistant CHO cells; assay: MTT cytotoxicity assay in MPP+-resistant transfected CHO cells; type: cell-based, Chinese hamster
Experimental: as §1
To determine whether an alteration in the process of respiration was responsible for the resistance to MPP^+, the effects of other known respiratory inhibitors were examined. […] Thus, if the resistance were due to a change in the site of action, the transfected cells should also show resistance to rotenone. […] However, rotenone is considered to have its selected effect on respiration at relatively low doses, and an additional, less specific effect at higher doses.
Therefore, the toxicity of MPP^+ to transfected cells in the presence of 1 μM reserpine was examined.

respiratory complex I = settings: cited from earlier work
[2] = test system: complex III of the respiratory chain; settings: cited from earlier work
[3] = target: T1, chromaffin granule amine transport protein (Rattus norvegicus, UniProt Q01818); assay: cell-based; type: cell-based; settings: for inhibition of vesicular amine uptake/transport (fluorescence assay, in words): concentrations of Table 1
T1 sequence (Q01818 1-521): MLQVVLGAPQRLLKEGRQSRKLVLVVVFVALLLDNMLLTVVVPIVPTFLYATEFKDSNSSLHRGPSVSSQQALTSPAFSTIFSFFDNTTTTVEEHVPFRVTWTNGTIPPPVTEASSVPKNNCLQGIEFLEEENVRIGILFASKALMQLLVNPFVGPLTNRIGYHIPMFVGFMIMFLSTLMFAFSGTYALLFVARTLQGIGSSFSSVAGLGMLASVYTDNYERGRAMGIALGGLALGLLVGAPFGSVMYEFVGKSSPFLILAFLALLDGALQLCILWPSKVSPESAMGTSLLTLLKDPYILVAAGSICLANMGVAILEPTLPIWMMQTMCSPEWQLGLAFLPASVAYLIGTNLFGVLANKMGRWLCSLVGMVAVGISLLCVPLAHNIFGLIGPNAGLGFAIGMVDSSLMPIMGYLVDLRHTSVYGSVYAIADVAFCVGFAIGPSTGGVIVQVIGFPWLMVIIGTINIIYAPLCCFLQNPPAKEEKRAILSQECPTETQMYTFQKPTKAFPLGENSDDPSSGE
Experimental: Uptake and cellular compartmentalization of loaded dopamine were performed by growing cells on poly-lysine-coated glass coverslips. […] The cells were then washed three times in 0.1M sodium phosphate, pH 7.4, and incubated at 4° C. in 2% glyoxylic acid/0.5 mg% MgCl2, pH 4.9-5.0 for three minutes as described by de la Torre, J. Neurosci. Meth. 3:1-5 (1980). Briefly, excess solution is wiped off the bottom and edges of the slide using absorbent paper, taking care not to touch the section. The coverslips were then drained thoroughly, dried in air at 45° C. heated to 80° C. for five minutes, inverted over mineral oil on glass slides and examined under fluorescence using the appropriate filters as described by Knigge et al., Brain Res. 120:393-405 (1977). Briefly, the preparations were infiltrated with warm immersion oil and examined in a Leitz MPV2 microspectrofluorometer equipped with Schoffel excitation and emission grating monochromators, photomultipliers, and ratio computing circuitry. Cells were scanned with either monochromatic light (370 nm) or narrow band excitation (S405, BG3) light for the purpose of identifying fluorescence within cells. Ploem illumination was used in combination with a X 63 or X 100 oil immersion objective.
Dopamine-loaded fluorescence was carried out as described in Example 1. […] Glyoxylic-acid-induced fluorescence was used to determine the intracellular distribution as described above in Example 1. The procedures were the same as described in Example 1 however a pure cDNA clone encoding the vesicle membrane transport protein, selected in the presence of MPP^+, obtained as described herein, was used rather than the primary transformant. […]
The effects of various pharmacologic agents were tested to determine whether the properties of the protein encoded by the mpp^res cDNA corresponded with those expected for the chromaffin granule amine transport protein. […] The cells were pre-incubated in Krebs-Ringer buffer containing 1 μM pargyline and the dose of the drug indicated for 15 minutes. 25 nM [^3 H]-dopamine was then added in the same buffer and after incubation at 37° C. for one hour, the cells were washed in cold Krebs-Ringer buffer, lysed and counted in Ecolite (ICN) as described by Greene and Rein, Brain Res. 129:247-263 (1978). Values were determined from three separate wells and the mean was expressed as percent of control uptake±standard deviation. […] The dose required to inhibit maximal uptake by 50%, Ki, was estimated from the fluorescence data using a range of concentrations for each agent.

PC12 cells [4] = settings: percent of control uptake ± SD; agent 10 mM; 25 nM [3H]-dopamine, 1 h, 37° C.
Experimental: (§2) The effects of various pharmacologic agents were tested to determine whether the properties of the protein encoded by the mpp^res cDNA corresponded with those expected for the chromaffin granule amine transport protein. […] The cells were pre-incubated in Krebs-Ringer buffer containing 1 μM pargyline and the dose of the drug indicated for 15 minutes. […] Values were determined from three separate wells and the mean was expressed as percent of control uptake±standard deviation.

[5] = target: T1, chromaffin granule amine transport protein; assay: Quantitative [3H]dopamine transport assay with mpp^res CHO cell homogenate; type: biochemical; settings: dose-response, 2-minute incubation (FIG. 15C)
Experimental: The quantity of label bound is measured after filtration of the assay mixture. Preferably, the label is a radioactive label. […] This can be done by standard graphic kinetic techniques such as the Lineweaver-Burke plot.
Incubation was performed at 29° C. for the time period indicated (from 2 minutes to 30 minutes). The assay was terminated by dilution in cold assay buffer followed by filtration through 0.2 μm Supor™ 200 membranes (Gelman, Ann Arbor, Mich.) and the bound radioactivity was measured. The cells used for the quantitative assay are selected in MPP^+ or screened with antibody to ensure that they express the transporter at high levels, as it is difficult to measure activity in this assay at low levels of transporter expression.
The quantitative transport test was performed as described above on wild-type CHO cells and mpp^res CHO cells.

PC12 cells [6] = assay: cells; settings: Rattus norvegicus, PC-12, 1 h, read-out: [^3 H]-Dopamine Uptake (PC12)
Experimental: as §2

[7] = test system: vesicular amine transport protein; settings: cited from earlier work
amine stores = settings: in vivo; cited from earlier work
chromaffin cells = settings: co-incubation with MPP+; cited from earlier work
central dopamine neurons = settings: primates; cited from earlier work
dopamine nerve terminals = settings: mice; cited from earlier work
[8] = test system: plasma membrane monoamine transport activity; settings: cited from earlier work
idiopathic PD = settings: in vivo, cited from earlier work
monoamine oxidase = settings: cited from earlier work
midbrain cells = settings: in vitro; cited from earlier work

Molecule: C=C(C)[C@H]1Cc2c(ccc3c2O[C@@H]2COc4cc(OC)c(OC)cc4[C@@H]2C3=O)O1 [rotenone]
- rotenone toxicity pattern (MTT assay) (wild-type CHO cells): biphasic pattern
- resistance of the transfectant to rotenone ([1]; vs wild-type): no substantial resistance
- inhibition of respiratory complex I (respiratory complex I): inhibits complex I

Molecule: oligomycin
- oligomycin toxicity pattern ([1]; wild-type vs resistant transfected CHO cells): same pattern of toxicity in wild-type and in resistant transfected CHO cells
- inhibition of respiratory complex III [2]: inhibits complex III

Molecule: Cl.N [NH4 Cl, ammonium chloride]
- inhibition of vesicular amine uptake/transport (fluorescence assay, in words) [3]: inhibited uptake only partially
- [^3 H]-Dopamine Uptake (PC12) (PC12 cells [4]): 51 ± 3%

Molecule: COc1cc2c(cc1OC)C1CC(=O)C(CC(C)C)CN1CC2 (stereo not shown) [tetrabenazine]
- inhibition of vesicular amine uptake/transport (fluorescence assay, in words) [3]: inhibited transport, but at high concentrations
- Ki ([3]; dose required to inhibit maximal uptake by 50%, estimated from fluorescence data, read-out: Ki (est)): 100 µM
- inhibition of dopamine transport [5]: inhibition by both reserpine and tetrabenazine
- activity at 100 µM (PC12 cells [6]): 45 ± 2%
- inhibition of vesicular amine transport [7]: an inhibitor of vesicular uptake; also recorded: inhibit this transport activity
- potency to deplete central rather than adrenal amine stores (amine stores): greater potency of that drug to deplete central rather than adrenal amine stores
- effect on MPP+ toxicity to chromaffin cells (chromaffin cells): chromaffin cell toxicity was potentiated

Molecule: CN1CC=C(c2ccccc2)CC1 [1-methyl-4-phenyl-1,2,3,6-tetrahydropyridine]
- damage to central dopamine neurons (central dopamine neurons): Damage to central dopamine neurons
- damage to dopamine nerve terminals (dopamine nerve terminals): dopamine nerve terminals in mice

Molecule: COC(=O)[C@H]1[C@@H](OC(=O)c2ccccc2)C[C@@H]2CC[C@H]1N2C [cocaine]
- inhibition of dopamine transport [5]: no inhibition
- inhibition of plasma membrane monoamine transport [8]: inhibiting this activity

Molecule: C#CCN(C)C(C)Cc1ccccc1 (stereo not shown) [deprenyl]
- rate of progression of Parkinson's disease (idiopathic PD): slow the rate of progression of the disease
- rate of progression of Parkinson's disease (idiopathic PD; listed as Deprenyl): appears to slow the rate of progression
- inhibition of monoamine oxidase (monoamine oxidase): inhibits the enzyme that activates MPTP, monoamine oxidase

B1: brain-derived neurotrophic factor (BDNF): neurotrophic factors such as brain-derived neurotrophic factor (BDNF) (protein, UniProt P23560 19-247, looked up)
Neurotrophic factor BDNF …: APMKEANIRGQGGLAYPGVRTHGTLESVNGPKAGSRGLTSLADTFEHVIEELLDEDQKVRPNEENNKDADLYTSRVMLSSQVPLEPPLLFLLEEYKNYLDAANMSMRVRRHSDPARRGELSVCDSISEWVTAADKKTAVDMSGGTVTVLEKVPVSKGQLKQYFYETKCNPMGYTKEGCRGIDKRHWNSQCRTTQSYVRALTMDSKKRIGWRFIRIDTSCVCTLTIKRGR
- protection of midbrain cells from MPP+ (midbrain cells): can protect midbrain cells from MPP^+ in vitro
